Series [1] deals with P493B lymphoma cells. Kind of series: Cell proliferation assay (CellTiter 96 AQueous). The class given is cell-based, human. The note with it: for EC50: Homo sapiens, 72 h incubation, read-out: EC50 (cell viability). The procedure: The cell proliferation assay was performed using the CellTiter 96® AQueous one solution cell proliferation reagent following the manufacturers' instruction (Promega, USA). Briefly, P493B lymphoma cells were plated in 96 well plates at a density of 20,000 cells/well in a final volume of 100 μL growth media. Test compound stocks were made in DMSO and were added to cells in a 1:10 serial dilution with a final concentration of 0.2% DMSO. Cells were allowed to proliferate for 72 h in the presence of test compounds. Thereafter, 20 μL of CellTiter 96™ AQeous (Promega #3580) was added per well and incubated for 2 h. Absorbance was measured at 490 nm.
DON and compound 7 were incubated with P493B lymphoma cells for 72 h, and cell viability was measured.

For a further series, the system named is P493B tumor cells. Description: Time dependent tumor cell to plasma partitioning of compound 7. The class given is cell-based, human. The protocol:
(§1) Tumor cell to plasma partitioning assay was conducted in P493B lymphoma cells (obtained from Dr. Chi Dang, Abramson Cancer Center, University of Pennsylvania, Philadelphia, PA; (REF, Nature 458, 762-765, 2009). In brief, cells were grown in 150 cm^2 cell T-flasks (Falcon™, USA) with RPMI 1640, 1× L-glutamine medium (Corning™ Cellgro™, USA) supplemented with 10% (v/v) FBS (Gibco™, USA), and 1% streptomycin and gentamycin (Gibco™, USA). All cells were incubated at 37° C., in a humidified atmosphere with 5% CO2. The cell confluency was monitored visually using an Axiovert 25 optical microscope equipped with an 3CCD digital camera. Upon confluency, cell suspension was collected and centrifuged at 1000 rpm for 5 min at 25° C. to collect the cell pellet. The supernatant media was decanted, the cell pellet was re-suspended in 20 mL of DPBS (Gibco™, USA), and maintained at 37° C. in order to remove the media traces.
The cell count was determined using an automated cell counter (Bio-Rad, USA) following a 1:1 dilution of an aliquot with 0.4% trypan blue solution (Bio-Rad, USA). The cell suspension in DPBS was centrifuged at 1000 rpm for 5 min at 25° C. to collect the cell pellet. The supernatant DPBS was decanted and the cell pellets were resuspended in human plasma (Innovative Research, USA) to obtain a cell density of 10 million cells/mL of plasma. […]

Series [2] can be described thus: Compound 7 dog pharmacokinetic study (SC). Format: in vivo. The note with it: beagle dog plasma, actual dose 2.6 mg/kg (DON eq. 0.8 mg/kg). The source says: Compound 7 was administrated to a beagle dog subcutaneously. FIG. 4C is a line graph showing its plasma pharmacokinetics in the dog.
Series [3] concerns P493B lymphoma cells. Kind of series: Human tumor cell to plasma partitioning assay, single time-point (compounds 1, 7, 12, 16 and DON). The class given is cell-based. The note with it: 20 μM; for DON release in plasma: human plasma containing P493B cells, 1 h incubation. The protocol: Compounds 1, 7, 12 and 16 were evaluated for their ability to be taken up in tumor cells and cleaved to give DON. The experimental conditions are described below.
as §1
The cell count was determined using an automated cell counter (Bio-Rad, USA) following a 1:1 dilution of an aliquot with 0.4% trypan blue solution (Bio-Rad, USA). The cell suspension in DPBS was centrifuged at 1000 rpm for 5 min at 25° C. to collect the cell pellet. The supernatant DPBS was decanted and the cell pellets were resuspended in human plasma (Innovative Research, USA) to obtain a cell density of 10 million cells/mL of plasma. For analysis of cell partitioning cell-plasma suspension, 1 ml, was pre-incubated at 37° C. for 5 min, following which, compounds were spiked for a final concentration of 20 μM and re-incubated at 37° C. for 1 h. Following incubation, the cell suspension was centrifuged at 10000 rpm for 10 min at 4° C. Supernatant plasma obtained after centrifugation was collected and stored at −80° C. for intact compound and DON analysis. The cell pellet was washed once with ice cold DPBS, followed by centrifugation and stored at −80° C. for intact prodrug and/or DON analysis by LC-MS/MS.
For quantification of DON and intact compound, cell pellets were weighed and suspended in 50 μL of water. To the cell suspension, ice cold methanol with internal standards (losartan: 0.5 μM and glutamate D5: 10 μM) were added in a 5:1 ratio of solvent to cell suspension. The cell samples were vortexed, mixed for 30 sec and centrifuged at 10,000 rpm for 10 min at 4° C. For intact compound bioanalysis, 50 μL of the supernatant obtained after centrifugation was diluted with 50 μL water and transferred to a 250 μL polypropylene vial sealed with a Teflon cap. DON bioanalysis was performed following dabsyl chloride derivatization method with minor modifications (see, Rais et al., 2016; Nedelcovych et al., 2017). Briefly, 200 μL of the supernatant was collected in a separate tube and dried at 45° C. under vacuum for 1 h. To each tube, 50 μL of 0.2 M sodium bicarbonate buffer (pH 9.0) and 100 μL dabsyl chloride stock was added. […] The standard curve for DON quantification in the cell pellet was prepared using naïve P493B cells diluted with water to the equivalent ratio as that of sample.
Briefly, DON was analyzed on a Dionex ultra high-performance system consisting of an analytical pump, and an autosampler coupled with Q Exactive Focus orbitrap mass spectrometer (Thermo Fisher Scientific Inc., Waltham MA). […]

Series [4] is described as follows: Dog pharmacokinetic study of compound #2 (IV infusion or SC). The class given is in vivo. The note with it: intact #2 in plasma, 0.2 mg/kg DON equivalent, male beagle dog; for AUC(0-t): read-out: Intact compound AUC0-t. The protocol: The dog pharmacokinetic study was conducted in accordance with the guidelines recommended in Guide for the Care and Use of Laboratory Animals and was approved by the Absorption Systems (San Diego, CA) Institutional Animal Care and Use Committee. Compound #2 was administered to male beagle dogs (n=1/group) as a bolus subcutaneous dose or infused over 1 h at a dose of 0.2 mg/kg DON equivalent. Blood samples were collected from the jugular vein (˜1 mL) via direct venipuncture at 0 min, 5 min (IV only), 15 min, 1 h, 2 h, 4 h, 8 h, and 24 h, post dose, placed into sodium heparin tubes, and maintained on wet ice until processing. Blood samples were centrifuged at a temperature of 4° C., at 3000× g, for 5 minutes. Plasma was collected in tubes and flash frozen. Samples were stored in a freezer set to maintain −60° C. to −80° C. until bioanalysis as described previously (see, Rais et al., 2016; Nedelcovych et al., 2017).

Where two headings read alike, the source gives them in different places. A value given as a limit tells only on which side of the number the result lay.

As for `CC(=O)NCCCC[C@H](NC(=O)C12CC3CC(CC(C3)C1)C2)C(=O)N[C@@H](CCC(=O)C=[N+]=[N-])C(=O)OC(C)C` [Compound 7], in the series with P493B lymphoma cells [1] (72 h, EC50 compared to DON), the “improvement of tumor cell killing vs DON” value is on record as “two-fold”. In addition, the EC50 in the series on P493B lymphoma cells [1] was found to be 5 ± 0.12 µM. Moreover, in the series with P493B tumor cells, the “intact compound observed in tumor cells” value is recorded as less than 1%. Besides, the AUC in series [2] (N = 1, read-out: AUC Cpd 7) came to 2.1 µM·h. The Cmax in series [2] (N = 1, read-out: Cmax Cpd 7) was found to be 640 nM. Moreover, the “DON release in plasma” value in the series on P493B lymphoma cells [3] was “minimal DON release”.

On to `[N-]=[N+]=CC(=O)CC[C@H](N)C(=O)O` [DON, 6-diazo-5-oxo-L-norleucine, reference compound], for which the 50% effective concentration (EC50) with P493B lymphoma cells [1] is 10 ± 0.11 µM.

Take `CC(=O)NCCCC[C@H](NC(=O)OCC1c2ccccc2-c2ccccc21)C(=O)N[C@@H](CCC(=O)C=[N+]=[N-])C(=O)OC(C)C` [Compound 2, Isopropyl 2-(2-((((9H-fluoren-9-yl)methoxy)carbonyl)amino)-6-acet-amidohexanamido)-6-diazo-5-oxohexanoate]: in series [4] (IV infusion over 1 h), the Cmax stood at 6570 nM, the Tmax was 0.08 h and the AUC(0-t) came to 7.45 µM·h. Besides, in series [4] (SC bolus), the Cmax was determined as 470 nM, the Tmax was determined as 4 h and the AUC(0-t) stood at 2.6 µM·h.

Consider `CC(=O)NCCCC[C@H](NC(=O)OC(C)(C)C)C(=O)N[C@@H](CCC(=O)C=[N+]=[N-])C(=O)OC(C)C` [Compound 1, Isopropyl 2-(6-acetamido-2-((tert-butoxycarbonyl)amino)-hexanamido)-6-diazo-5-oxohexanoate], for which, in the series on P493B lymphoma cells [3], the “DON release in plasma” value is “minimal DON release”.

On to `CC(=O)NCCCC[C@H](NC(=O)[C@@H]1Cc2ccccc2CN1C(C)=O)C(=O)N[C@@H](CCC(=O)C=[N+]=[N-])C(=O)OC(C)C` (stereo in doubt) [Compound 16, Isopropyl 2-(6-acetamido-2-(2-acetyl-1,2,3,4-tetrahydroisoquinoline-3-carboxamido)hexanamido)-6-diazo-5-oxohexanoate], for which, in the series on P493B lymphoma cells [3], the “DON release in plasma” value is reported as “minimal DON release”. In addition, in the series on P493B lymphoma cells [3] (human plasma with 10 million P493B cells, 37° C., 1 h, compared to DON), the “DON release in tumor cells (tumor cell DON concentrations)” value was “minimal release”.

`CC(=O)NCCCC[C@H](NC(=O)[C@H](Cc1c[nH]c2ccccc12)NC(C)=O)C(=O)N[C@@H](CCC(=O)C=[N+]=[N-])C(=O)OC(C)C` (stereo in doubt) [Compound 12, Isopropyl 2-(6-acetamido-2-(2-acetamido-3-(1H-indol-3-yl)propan-amido)hexanamido)-6-diazo-5-oxohexanoate]: the “DON release in plasma” value with P493B lymphoma cells [3] is given as “minimal DON release”.

A word on the EC50: it is the midpoint of the concentration-response curve. In general, AUC refers to concentration integrated over time. As usually defined, the Cmax is the peak of the concentration-time curve. Usually Tmax stands for the time at which the peak concentration occurs.

The record behind these values is US12195419B2, “Glutamine antagonists and uses thereof” (The Johns Hopkins University, priority 2017, dated 2025).
